Literature values in article PMC11843658 (Journal of Enzyme Inhibition and Medicinal Chemistry, 2025).

Biological target: LSD1 (Homo sapiens, UniProt O60341)
Design: purchased Cayman Chemical (Ann Arbor, MI)
Settings: cited from earlier work

Question: With `CC/C(=C\c1ccccc1)[C@@H]1C[C@H]1NC1CC2(C1)CN(CCO)C2` [Compound 5] as the compound, how does the “mode of LSD1 inhibition” value read?
Answer: covalently inhibits LSD1
